Assay results as given in patent US20240383898A1, “PYRIDO RING COMPOUND, PREPARATION METHOD THEREFOR, INTERMEDIATE, COMPOSITION, AND APPLICATION” (YIYOU BIOTECH (SHANGHAI) CO., LTD, priority 2021, published 2024).

How the values were obtained:
[1] = molecular target: T1, JAK1 (Homo sapiens, UniProt P23458); assay: In vitro activity test of JAK1 kinase (Caliper EZ Reader conversion assay); type: biochemical; conditions: enzyme activity, 10 concentrations from 1000 nM, 3-fold dilution
T1 construct: purchased Carna 08-114
T1 sequence (P23458 whole entry, species assumed): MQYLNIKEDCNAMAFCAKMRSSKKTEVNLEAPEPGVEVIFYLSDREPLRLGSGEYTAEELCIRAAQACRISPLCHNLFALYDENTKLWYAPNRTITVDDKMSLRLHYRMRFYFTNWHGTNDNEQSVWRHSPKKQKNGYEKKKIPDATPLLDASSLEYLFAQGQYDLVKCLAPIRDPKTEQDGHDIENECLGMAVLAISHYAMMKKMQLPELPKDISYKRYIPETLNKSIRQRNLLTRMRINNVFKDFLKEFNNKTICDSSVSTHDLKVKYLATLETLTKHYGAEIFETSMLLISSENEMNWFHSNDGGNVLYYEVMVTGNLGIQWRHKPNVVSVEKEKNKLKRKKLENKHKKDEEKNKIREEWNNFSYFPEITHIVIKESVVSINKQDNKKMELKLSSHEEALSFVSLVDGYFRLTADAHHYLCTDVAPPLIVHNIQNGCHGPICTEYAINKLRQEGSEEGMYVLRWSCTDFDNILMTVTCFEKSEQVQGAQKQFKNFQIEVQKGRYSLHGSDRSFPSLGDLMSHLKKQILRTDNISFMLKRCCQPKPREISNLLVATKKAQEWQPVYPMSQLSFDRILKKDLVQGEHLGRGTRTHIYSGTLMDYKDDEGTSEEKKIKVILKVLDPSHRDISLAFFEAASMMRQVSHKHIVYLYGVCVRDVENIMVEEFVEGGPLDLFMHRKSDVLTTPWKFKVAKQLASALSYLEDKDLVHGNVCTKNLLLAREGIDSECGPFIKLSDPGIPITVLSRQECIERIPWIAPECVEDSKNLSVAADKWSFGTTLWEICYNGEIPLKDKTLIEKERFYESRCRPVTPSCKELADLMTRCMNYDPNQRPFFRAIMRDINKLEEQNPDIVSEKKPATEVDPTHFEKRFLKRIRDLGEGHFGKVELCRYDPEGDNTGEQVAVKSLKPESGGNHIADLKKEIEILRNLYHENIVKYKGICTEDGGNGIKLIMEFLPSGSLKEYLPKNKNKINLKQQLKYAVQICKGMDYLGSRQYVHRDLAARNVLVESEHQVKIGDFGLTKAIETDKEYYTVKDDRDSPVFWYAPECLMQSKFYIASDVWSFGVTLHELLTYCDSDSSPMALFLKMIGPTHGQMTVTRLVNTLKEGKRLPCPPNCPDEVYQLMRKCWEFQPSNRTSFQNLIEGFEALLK
Method in brief: (§1)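 JAK1 or JAK2 pre-incubated with compound (top 1000 nM, 3-fold, 10 points, duplicate) for 10 min at room temperature, then ATP plus substrate added. Substrate conversion read by mobility-shift on Caliper EZ Reader after stop solution. Inhibition normalized to no-enzyme and DMSO controls; IC50 from variable-slope four-parameter fit.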

[2] = molecular target: T2, JAK2 (Homo sapiens, UniProt O60674); assay: In vitro activity test of JAK2 kinase (Caliper EZ Reader conversion assay); type: biochemical; conditions: enzyme activity, 10 concentrations from 1000 nM, 3-fold dilution
T2 construct: purchased Carna 08-045
T2 sequence (O60674 whole entry, species assumed): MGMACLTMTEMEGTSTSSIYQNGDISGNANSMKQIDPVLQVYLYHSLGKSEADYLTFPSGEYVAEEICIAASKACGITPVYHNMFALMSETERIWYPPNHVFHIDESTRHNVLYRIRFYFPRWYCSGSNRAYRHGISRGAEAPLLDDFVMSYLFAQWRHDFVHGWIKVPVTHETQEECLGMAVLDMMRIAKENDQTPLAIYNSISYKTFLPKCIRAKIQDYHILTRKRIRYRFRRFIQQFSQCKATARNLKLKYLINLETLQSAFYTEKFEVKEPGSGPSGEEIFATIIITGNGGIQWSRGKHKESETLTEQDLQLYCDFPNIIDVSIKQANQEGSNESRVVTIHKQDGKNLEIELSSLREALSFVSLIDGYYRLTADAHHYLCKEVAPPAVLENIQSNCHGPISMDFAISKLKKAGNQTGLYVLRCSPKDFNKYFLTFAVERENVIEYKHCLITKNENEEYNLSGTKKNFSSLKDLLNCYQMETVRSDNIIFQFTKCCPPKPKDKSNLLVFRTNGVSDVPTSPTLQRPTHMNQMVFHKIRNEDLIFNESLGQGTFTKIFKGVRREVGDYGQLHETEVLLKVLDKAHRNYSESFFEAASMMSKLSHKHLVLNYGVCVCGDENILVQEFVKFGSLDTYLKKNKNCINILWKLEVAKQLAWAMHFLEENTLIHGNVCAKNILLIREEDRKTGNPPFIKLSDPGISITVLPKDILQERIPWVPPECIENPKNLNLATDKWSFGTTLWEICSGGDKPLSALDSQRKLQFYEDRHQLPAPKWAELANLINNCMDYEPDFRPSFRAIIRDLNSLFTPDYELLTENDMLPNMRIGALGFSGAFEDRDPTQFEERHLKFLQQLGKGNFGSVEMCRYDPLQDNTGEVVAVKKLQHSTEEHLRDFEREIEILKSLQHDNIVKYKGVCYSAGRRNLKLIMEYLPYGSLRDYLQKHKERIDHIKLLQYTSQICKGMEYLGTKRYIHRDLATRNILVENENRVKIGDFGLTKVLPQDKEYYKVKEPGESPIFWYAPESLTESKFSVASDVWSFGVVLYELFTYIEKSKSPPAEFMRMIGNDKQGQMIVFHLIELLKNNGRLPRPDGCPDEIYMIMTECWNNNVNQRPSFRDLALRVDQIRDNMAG
Method in brief: as §1

| IC50 [1] [nM] | IC50 [2] [nM] | SMILES |
| --- | --- | --- |
| 10 to 100 | 10 to 100 | N#CCn1cc(-n2c(-c3ccc(CO)o3)nc3cnc4[nH]ccc4c32)cn1 [LXS81, 2-(4-(2-(5-(Hydroxymethyl)furan-2-yl)imidazo[4,5-d]pyrrolo[2,3-b]pyridin-1(6H)-yl)-1H-pyrazol-1-yl)acetonitrile] |
| 10 to 100 | 10 to 100 | N#CCCn1cc(-n2c(-c3cccc(O)c3)nc3cnc4[nH]ccc4c32)cn1 [LXS82, 3-(4-(2-(3-Hydroxyphenyl)imidazo[4,5-d]pyrrolo[2,3-b]pyridin-1(6H)-yl)-1H-pyrazol-1-yl)propanenitrile] |
| 10 to 100 | 10 to 100 | N#CCCn1cc(-n2c(-c3ccccc3F)nc3cnc4[nH]ccc4c32)cn1 [LXS83, 3-(4-(2-(2-Fluorophenyl)imidazo[4,5-d]pyrrolo[2,3-b]pyridin-1(6H)-yl)-1H-pyrazol-1-yl)propanenitrile] |
| < 10 | 100 to 1000 | C[C@@H](O)c1nc2cnc3[nH]ncc3c2n1[C@H]1CCN(CCCC#N)C1 [LXS85, 4-((S)-3-(2-((R)-1-Hydroxyethyl)imidazo[4,5-d]pyrazolo[3,4-b]pyridin-1(6H)-yl)pyrrolidin-1-yl)butanenitrile] |
| < 10 | 100 to 1000 | C[C@@H](O)c1nc2cnc3[nH]ccc3c2n1[C@@H]1CN(CCCC(F)(F)F)CC1F (stereo partly drawn) [LXS86, (1R)-1-(1-((3R)-4-fluoro-1-(4,4,4-trifluorobutyl)pyrrolidin-3-yl)-1,6-dihydroimidazo[4,5-d]pyrrolo[2,3-b]pyridin-2-yl)ethan-1-ol] |
| < 10 | 100 to 1000 | C[C@@H](O)c1nc2cnc3[nH]ccc3c2n1[C@@H]1CN(CCCC(F)(F)F)C[C@H]1F [LXS87, (R)-1-(1-((3R,4R)-4-fluoro-1-(4,4,4-trifluorobutyl)pyrrolidin-3-yl)-1,6-dihydroimidazo[4,5-d]pyrrolo[2,3-b]pyridin-2-yl)ethan-1-ol] |
| 10 to 100 | 100 to 1000 | C[C@@H](O)c1nc2cnc3[nH]ccc3c2n1[C@H]1C[C@@H](CO)N(CCCC(F)(F)F)C1 [LXS89, (R)-1-(1-((3S,5S)-5-(hydroxymethyl)-1-(4,4,4-trifluorobutyl)pyrrolidin-3-yl)-1,6-dihydroimidazo[4,5-d]pyrrolo[2,3-b]pyridin-2-yl)ethan-1-ol] |
| 10 to 100 | 100 to 1000 | C[C@@H](O)c1nc2cnc3[nH]ncc3c2n1[C@H]1CCN(CCCC(F)(F)F)C1 [LXS90, (R)-1-(1-((S)-1-(4,4,4-trifluorobutyl)pyrrolidin-3-yl)-1,6-dihydroimidazo[4,5-d]pyrazolo[3,4-b]pyridin-2-yl)ethan-1-ol] |
| < 10 | 100 to 1000 | C[C@@H](O)c1nc2cnc3[nH]ccc3c2n1[C@H]1C[C@H](CO)N(CCCC(F)(F)F)C1 [LXS91, (R)-1-(1-((3S,5R)-5-(hydroxymethyl)-1-(4,4,4-trifluorobutyl)pyrrolidin-3-yl)-1,6-dihydroimidazo[4,5-d]pyrrolo[2,3-b]pyridin-2-yl)ethan-1-ol] |
| < 10 | 100 to 1000 | C[C@@H](O)c1nc2cnc3[nH]ncc3c2n1[C@@H]1CN(CCCC#N)CC1F (stereo partly drawn) [LXS93, 4-((4R)-3-Fluoro-4-(2-((R)-1-hydroxyethyl)imidazo[4,5-d]pyrazolo[3,4-b]pyridin-1(6H)-yl)pyrrolidin-1-yl)butanenitrile] |
| 10 to 100 | 100 to 1000 | C[C@@H](O)c1nc2cnc3[nH]ncc3c2n1[C@H]1C[C@@H](CO)N(CCCC#N)C1 [LXS94, 4-((2S,4S)-4-(2-((R)-1-Hydroxyethyl)imidazo[4,5-d]pyrazolo[3,4-b]pyridin-1(6H)-yl)-2-(hydroxymethyl)pyrrolidin-1-yl)butanenitrile] |
| < 10 | 100 to 1000 | C[C@@H](O)c1nc2cnc3[nH]ccc3c2n1[C@H]1CCN(CCC(F)(F)F)C1 [LXS96, (R)-1-(1-((S)-1-(3,3,3-trifluoropropyl)pyrrolidin-3-yl)imidazo[4,5-d]pyrrolo[2,3-b]pyridin-2-yl)ethanol] |
| < 10 | 100 to 1000 | C[C@@H](O)c1nc2cnc3[nH]ccc3c2n1[C@H]1CCN(CCC(F)(F)C(F)(F)F)C1 [LXS97, (R)-1-(1-((S)-1-(3,3,4,4,4-Pentafluorobutyl)pyrrolidin-3-yl)imidazo[4,5-d]pyrrolo[2,3-b]pyridin-2-yl)ethanol] |
| 10 to 100 | 10 to 100 | OCc1ccc(-c2nc3cnc4[nH]ccc4c3n2[C@H]2CCN(CCCC(F)(F)F)C2)o1 [LXS98, (S)-(5-(1-(1-(4,4,4-trifluorobutyl)pyrrolidin-3-yl)-1,6-dihydroimidazo[4,5-d]pyrrolo[2,3-b]pyridin-2-yl)furan-2-yl)methanol] |
| 10 to 100 | 10 to 100 | Oc1cccc(-c2nc3cnc4[nH]ccc4c3n2[C@H]2CCN(CCCC(F)(F)F)C2)c1 [LXS99, (S)-3-(1-(1-(4,4,4-trifluorobutyl)pyrrolidin-3-yl)-1,6-dihydroimidazo[4,5-d]pyrrolo[2,3-b]pyridin-2-yl)phenol] |
| < 10 | 100 to 1000 | C[C@@H](O)c1nc2cnc3[nH]ccc3c2n1[C@H]1CCN(C(F)(F)C(F)(F)C(F)(F)C(F)(F)F)C1 [LXS101, (R)-1-(1-((S)-1-(Perfluoro-butyl)pyrrolidin-3-yl)-1,6-dihydroimidazo[4,5-d]pyrrolo[2,3-b]pyridin-2-yl)ethanol] |
| < 10 | 100 to 1000 | C[C@@H](O)c1nc2cnc3[nH]ccc3c2n1[C@H]1CCN(S(=O)(=O)CCC(F)(F)F)C1 [LXS102, (R)-1-(1-((S)-1-((3,3,3-Trifluoropropyl)sulfonyl)pyrrolidin-3-yl)imidazo[4,5-d]pyrrolo[2,3-b]pyridin-2-yl)ethanol] |
| 10 to 100 | 10 to 100 | N#CCCCn1cc(-n2cnc3cnc4[nH]ccc4c32)cn1 [LXS103, 4-(4-(imidazo[4,5-d]pyrrolo[2,3-b]pyridin-1(6H)-yl)-1H-pyrazol-1-yl)butanenitrile] |
| 10 to 100 | 10 to 100 | Cc1ccc(-c2nc3cnc4[nH]ccc4c3n2-c2cnn(CCCC#N)c2)o1 [LXS104, 4-(4-(2-(5-methylfuran-2-yl)imidazo[4,5-d]pyrrolo[2,3-b]pyridin-1(6H)-yl)-1H-pyrazol-1-yl)butanenitrile] |
| 100 to 1000 | 10 to 100 | Cc1ccc(-c2nc3cnc4[nH]ccc4c3n2-c2cnn(CCCC#N)c2)s1 [LXS105] |
| 100 to 1000 | 10 to 100 | N#CCCn1cc(-n2c(-c3cccs3)nc3cnc4[nH]ccc4c32)cn1 [LXS106, 3-(4-(2-(Thiophen-2-yl)imidazo[4,5-d]pyrrolo[2,3-b]pyridin-1(6H)-yl)-1H-pyrazol-1-yl)propanenitrile] |
| 100 to 1000 | 10 to 100 | N#CCCCn1cc(-n2c(C3CCC3)nc3cnc4[nH]ccc4c32)cn1 [LXS107, 4-(4-(2-cyclobutylimidazo[4,5-d]pyrrolo[2,3-b]pyridin-1(6H)-yl)-1H-pyrazol-1-yl)butanenitrile] |
| 100 to 1000 | 10 to 100 | N#CCCCn1cc(-n2c(C3CC3)nc3cnc4[nH]ccc4c32)cn1 [LXS108, 4-(4-(2-cyclopropylimidazo[4,5-d]pyrrolo[2,3-b]pyridin-1(6H)-yl)-1H-pyrazol-1-yl)butanenitrile] |
| 10 to 100 | 10 to 100 | N#CCN1CCC(n2c(-c3cccc(O)c3)nc3cnc4[nH]ccc4c32)C1 (centres unmarked) [LXSS3, 2-(3-(2-(3-Hydroxyphenyl)imidazo[4,5-d]pyrrolo[2,3-b]pyridin-1(6H)-yl)pyrrolidin-1-yl)acetonitrile] |

| SMILES | IC50 [1] [nM] | IC50 [2] [nM] |
| --- | --- | --- |
| C[C@@H](O)c1nc2cnc3[nH]ccc3c2n1[C@H]1CCN(CC(F)(F)C(F)(F)C(F)(F)F)C1 [LXS100, (R)-1-(1-((S)-1-(2,2,3,3,4,4,4-Heptafluorobutyl)pyrrolidin-3-yl)imidazo[4,5-d]pyrrolo[2,3-b]pyridin-2-yl)ethanol] | < 10 | 100 to 1000 |
